{"source": "paper PMC4309560", "about": "“Creating Novel Activated Factor XI Inhibitors through Fragment Based Lead Generation and Structure Aided Drug Design” (PLoS ONE, 2015)", "key": {"[1]": {"molecular_target": "T1, Human FXIa (Homo sapiens, UniProt P03951)", "T1 construct": "purchased HTI, Essex Junction, USA", "T1 sequence (P03951 388-625)": "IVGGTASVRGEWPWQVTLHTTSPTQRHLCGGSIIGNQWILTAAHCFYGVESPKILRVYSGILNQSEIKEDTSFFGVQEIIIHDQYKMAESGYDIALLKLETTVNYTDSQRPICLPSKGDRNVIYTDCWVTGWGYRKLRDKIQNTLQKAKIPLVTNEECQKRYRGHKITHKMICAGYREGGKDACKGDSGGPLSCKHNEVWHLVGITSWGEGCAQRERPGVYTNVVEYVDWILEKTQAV", "T1 sequence (P03951 19-387)": "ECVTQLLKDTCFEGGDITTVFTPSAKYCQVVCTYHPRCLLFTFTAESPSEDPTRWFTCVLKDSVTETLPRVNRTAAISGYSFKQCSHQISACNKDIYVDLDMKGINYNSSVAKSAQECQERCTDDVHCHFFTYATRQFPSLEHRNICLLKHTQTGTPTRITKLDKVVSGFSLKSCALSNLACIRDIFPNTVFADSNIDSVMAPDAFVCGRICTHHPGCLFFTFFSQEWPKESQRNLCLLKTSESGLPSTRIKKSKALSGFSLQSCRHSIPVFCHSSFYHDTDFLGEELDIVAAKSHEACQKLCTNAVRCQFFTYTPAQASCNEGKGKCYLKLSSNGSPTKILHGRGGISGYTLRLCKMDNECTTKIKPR", "assay": "FXIa enzymatic chromogenic assay", "type": "biochemical", "method": "(§1) Enzymatic assay. […] Selected compounds were also screened against other serine proteases to evaluate their selectivity profiles.\n(§2) Once the compounds were synthesized and characterized, enzymatic assays were performed to evaluate the inhibitory activity of the resulting compounds against FXIa and other serine proteases. […] IC50 values for the compounds were determined using equation: Q= V/(1+([I]/IC50)^n) Q denotes the assay readout, V denotes the uninhibited velocity of the enzyme, [I] denotes the inhibitor concentration, n denotes the slope and IC50 is the inhibitor concentration at V/2.\n(§3) [S] denotes the substrate concentration."}, "[2]": {"molecular_target": "T2, Human PKK (Homo sapiens, UniProt P03952)", "T2 construct": "trypsin, plasma kallikrein (PKK), FIXa; purchased Calbiochem, Darmstadt, Germany", "T2 sequence (P03952 391-638 limits assumed)": "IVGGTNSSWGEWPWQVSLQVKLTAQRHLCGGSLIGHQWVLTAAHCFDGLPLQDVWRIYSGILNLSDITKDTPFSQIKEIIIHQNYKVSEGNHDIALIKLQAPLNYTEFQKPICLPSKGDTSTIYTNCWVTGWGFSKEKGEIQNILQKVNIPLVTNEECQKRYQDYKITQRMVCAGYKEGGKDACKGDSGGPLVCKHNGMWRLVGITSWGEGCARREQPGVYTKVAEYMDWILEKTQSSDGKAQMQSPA", "T2 sequence (P03952 20-390 partner limits assumed)": "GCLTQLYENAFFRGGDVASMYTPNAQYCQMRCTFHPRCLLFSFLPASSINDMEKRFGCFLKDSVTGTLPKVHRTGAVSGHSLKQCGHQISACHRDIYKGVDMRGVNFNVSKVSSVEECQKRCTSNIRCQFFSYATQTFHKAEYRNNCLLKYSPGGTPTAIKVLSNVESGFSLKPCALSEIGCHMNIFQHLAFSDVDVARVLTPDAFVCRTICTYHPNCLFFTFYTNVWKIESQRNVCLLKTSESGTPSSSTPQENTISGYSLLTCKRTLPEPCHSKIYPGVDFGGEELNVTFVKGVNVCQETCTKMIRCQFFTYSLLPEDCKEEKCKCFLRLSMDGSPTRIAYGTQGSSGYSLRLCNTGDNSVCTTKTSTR", "assay": "PKK (plasma kallikrein) chromogenic assay", "type": "biochemical", "method": "as §1, §2, §3\nPKK. Human PKK was from Calbiochem, Darmstadt, Germany."}, "[3]": {"molecular_target": "T3, FXIa CD (Homo sapiens, UniProt P03951, C500S/K455A/S452A/T493A)", "T3 construct": "purification of the catalytic domain (residues 370–607) was carried out as described by Jin et al; made in house", "T3 sequence (P03951 388-625 S452A/K455A/T493A/C500S)": "as the sequence (P03951 388-625) above, with S65A, K68A, T106A, C113S counted along it", "assay": "FXIa surface plasmon resonance (Biacore) inhibition in solution assay", "type": "binding", "text": "SPR. […] The SPR data were then used to rank and select compounds for X-ray crystallography experiments. The SPR method was based on an inhibition in solution assay in which compound 4, immobilized on the biosensor surface, served as a probe for the FXIa catalytic site. […] Fig. 4 illustrates the design of compound 4 based on the crystal structure of FXIa in complex with compound 1. Since any ligand that binds to the S1 pocket competes with compound 4 for binding to FXIa CD, it is possible to derive the K D for that ligand [60]. The initial binding rate of the protein to compound 4, K on, was used to determine the percentage of free protein in solution which changed by varying the concentration of the competing ligand. The free protein concentration was plotted against the logarithm of the ligand concentration and a sigmoidal dose–response curve-fit model was applied to determine the K D-value.\nThe tethered free amine ligand 4 was covalently linked to the dextran layer on the CM5 sensor chip (GE Healthcare/Biacore) using the Amine Coupling Kit (Healthcare/Biacore) and performed according to the manufacturer’s recommendations. Carboxyl groups on the dextran layer were activated by injecting a 1:1 mixture of 0.5 M N-ethyl-N’ (3-dimethylaminopropyl)-carbodiimide and 0.5 M N-hydroxysuccinimide at 10 μL/min for 7 min. The activated carboxyl groups on the control channels were blocked by injecting a 1 M ethanolamine solution for 7 min at 10 μL/min. […] The remaining activated groups were blocked with 1 M ethanolamine. Compounds were tested in a concentration response curve. The compounds were serially diluted 1:3 in DMSO to form a 10-point concentration response curve with 5 mM for the highest concentration. The FXIa CD was added to the plate at a final concentration of 50 nM and the mixture was incubated for 15 min at RT. The plate was then sealed and placed in the Biacore 3000 instrument. Samples were injected at 20 μL/min for 2 min. […] The value used to calculate percent inhibition of binding was the slope of the response measured 8 s after the start of the injection. […]"}, "[4]": {"assay": "Caco2 efflux", "type": "in vitro ADME", "conditions": "human, Caco-2; Caco2, Papp B to A / Papp A to B, pH 7.4 at side A", "text": "Efflux was studied in the same Caco2 cells with the modification that HBSS buffer pH 7.4 was used on both sides of the monolayer. The permeability was studied in the apical to basolateral direction (Papp AB) as well as in the basolateral to apical direction and (Papp BA). Efflux ratios were derived from the following equation: Papp BA/Papp AB."}, "[5]": {"tested_on": "rat hepatocytes", "assay": "Rat hepatocyte metabolic stability assay", "type": "in vitro ADME", "method": "Rat hepatocyte metabolic stability was determined in accordance with the method described by Jacobson et al.. Cryo preserved hepatocytes at a concentration of 10^6 viable cells/mL were used. After thawing, hepatocytes were incubated for 10 min to warm to 37°C and test compounds, dissolved in acetonitrile, were added to give a final concentration of 1 μM. At 0.5, 5, 15, 30, 45, 60, 80, 100 and 120 min, the incubation system was mixed and 20 μL aliquots were transferred at each time point to wells in a separate plate filled with 80 μL acetonitrile to stop the reaction. The quenching plate was then vortexed followed by centrifugation, and supernatants were analyzed by LC/MS/MS. Peak areas were determined from extracted ion chromatograms, and the in vitro intrinsic clearance (in vitro CLint, in μL/min/10^6 cells) of parent compound was calculated from the slope in the regression analysis of the natural logarithm of parent concentration vs. time curve."}}, "note": "pIC50, pKd, pKi: −log10 of the molar value."}
{"compound": "O=C(N[C@@H](Cc1ccccc1)C(=O)NCc1cc(=O)[nH]c2ccc(Cl)cc12)c1ccc2[nH]c(=O)cc(O)c2c1", "note": "[Compound 13, (S)-N-(1-{(6-Chloro-2-oxo-1,2-dihydroquinolin-4-yl)methylamino}-1-oxo-3-phenylpropan-2-yl)-4-hydroxy-2-oxo-1,2-dihydroquinoline-6-carboxamide]", "values": [{"measurement": "pIC50", "setting": "[1]", "value": 9.00}, {"measurement": "ligand efficiency (LE)", "setting": "[1]; FXIa", "value": 0.32}, {"measurement": "ΔG (binding free energy)", "setting": "[1]; FXIa, term of the ΔG link equation", "value": -12.7, "unit": "kcal/mol"}, {"measurement": "ΔG link (linker contribution)", "setting": "[1]; compound 13 relative to fragments 5 and 15", "value": -3.13, "unit": "kcal/mol"}, {"measurement": "pKi", "setting": "[1]; read-out: FXIa Ki", "value": 9.30}, {"measurement": "pIC50", "setting": "[2]", "value": 7.57}, {"measurement": "selectivity vs. PKK", "setting": "[2]; FXIa over PKK, for 13 based on Ki values", "value": 11, "unit": "fold"}, {"measurement": "pKi", "setting": "[2]; converted from IC50", "value": 8.25}, {"measurement": "pKd", "setting": "[3]", "value": 9.30}, {"measurement": "efflux ratio", "setting": "[4]", "value": "> 4.6"}, {"measurement": "Rat CLint", "setting": "[5]", "value": 22, "unit": "μL/min/ 1·10^6 cells"}]}
